Test results reported in patent US8173654B2, “Triazolopyridazine compounds” (Janssen Pharmaceutica N.V., priority 2005, dated 2012).

Key:
[1] = system: U87MG glioblastoma tumors; test: U87MG glioblastoma tumor xenograft model (tumor growth inhibition); assay type: in vivo, athymic nude mice
Procedure: The U87MG glioblsatoma cell line (Piedmont Research Center LLC) expresses the c-Met receptor and responds to Human Growth Factor (HGF). This study investigated whether treatment with an inhibitor of c-Met is efficacious against the U87MG glioblastoma tumor xenograft model. This study utilized a tumor growth inhibition (TGI) assay to test per os (p.o.) compound monotherapy in groups of fifteen nude mice. A control group was treated with vehicle, 20% Hydroxypropyl Beta-Cyclodextrin (HPBCD). All treatments began on Day 1 (D1) in mice bearing established subcutaneous (s.c.) U87MG tumors.
Female athymic nude mice (Harlan) were 10-11 weeks old with a BW range of 18.1-25.0 g on D1 of the study. The animals were fed ad libitum water (reverse osmosis, 1 ppm Cl) and NIH 31 Modified and Irradiated Lab Diet® consisting of 18.0% crude protein, 5.0% crude fat, and 5.0% crude fiber. The mice were housed on irradiated ALPHA-dri® Bed-o-cobs® Laboratory Animal Bedding in static microisolators on a 12-hour light cycle at 21-22° C. (70-72° F.) and 40-60% humidity. All animals were housed in a Laboratory Animal Medicine facility that is fully accredited by the American Association for Assessment and Accreditation of Laboratory Animal Care (AAALAC). All procedures involving animals were conducted in compliance with the NIH Guide for the Care and Use of Laboratory Animals and all protocols were approved by an Internal Animal Care and Use Committee (IACUC).
Xenografts were initiated from U87MG human glioblastoma tumor fragments maintained by serial transplantation in athymic nude mice. Each test mouse received a subcutaneous U87MG tumor fragment (1 mm^3) implanted in the right flank, and the growth of tumors was monitored as the average size approached 200 mm^3. Twelve days later, on Day 1 of the study, the animals were sorted into 4 groups (n=12-15 mice/group) with individual tumor volumes ranging from 172-352 mm^3 and group mean tumor volumes of 216 mm^3. Tumor volume was calculated using the formula:
[formula] where w=width and l=length in mm of the tumor. Tumor weight may be estimated with the assumption that 1 mg is equivalent to 1 mm^3 of tumor volume. Drug Treatment
Dosing solutions of compounds of the present invention were prepared fresh weekly in a vehicle consisting of 20% Hydroxypropyl Beta-Cyclodextrin (HPBCD) in water. In all groups, the dosing volume of 0.2 mL/20-g mouse was scaled to the body weight of each animal. Doses were given to allow for the HCl salt form of the compound.
TGI was calculated from the difference between the median tumor volumes of vehicle-treated and drug-treated mice, expressed as a percentage of the median tumor volume of the vehicle-treated control group, by the following relation:
The MTV (n) is defined as the median tumor volume (MTV) for the number of animals, n, remaining in the study on that day.
Animals were weighed daily for the first five days of the study and then twice weekly. The mice were examined frequently for overt signs of any adverse, drug-related side effects, and clinical signs of toxicity were recorded when observed. Acceptable toxicity is defined as a group mean body-weight (BW) loss of less than 20% during the study, and not more than one treatment-related (TR) death among ten animals. A death is classified as TR if it is attributable to treatment side effects as evidenced by clinical signs and/or necropsy, or due to unknown causes during the dosing period or within 10 days of the last dose. A death is classified as non treatment-related (NTR) if there is no evidence that the death was related to drug side effects. A death is classified as non treatment-related unknown (NTRu) if the cause of death is unknown.
The Mann-Whitney U-test, for analysis of medians, was used to determine the statistical significance of the difference between the MTVs. Prism 3.03 (GraphPad) for Windows was used for the statistical analyses and graphic presentations. […]

S114 tumors = test: S114 tumor model; assay type: in vivo, athymic nude mice; settings: 100 mg/kg p.o. q.d., four consecutive days, five mice
Procedure: Female athymic nude mice were inoculated subcutaneously in the left inguinal region of the thigh with 5×10^6 S114 cells in a delivery volume of 0.1 mL. Tumors were allowed to grow to for five days. Mice were dosed orally at 100 mg/kg compound in 20% HPBCD or with vehicle (20% HPBCD, control group). Dosing was continued for 4 consecutive days. On the day of study termination, tumors were immediately excised intact and weighed, with final tumor wet weight (grams) serving as a primary efficacy endpoint.
Female athymic nude mice (CD-1, nu/nu, 9-10 weeks old) were obtained from Charles River Laboratories (Wilmington, Mass.) and were maintained according to NIH standards. All mice were group housed (5 mice/cage) under clean-room conditions in sterile micro-isolator cages on a 12-hour light/dark cycle in a room maintained at 21-22° C. and 40-50% humidity. […]
The murine NIH 3T3 derived cell line S114, which has been engineered to over-express both Human Growth Factor (HGF) and the human c-Met receptor, was propagated in DMEM media (Life Technologies, Bethesda, Md.). Immediately prior to injection, cells were washed counted and resuspended in PBS. […]
Mice were dosed orally at 100 mg/kg compound in 20% HPBCD or with vehicle (20% HPBCD, control group). […] Body weight was measured at the end of the study and a loss of body weight >10% was used as an indication of lack of compound tolerability. […]

Cn1cc(-c2ccc3nnc(C(F)(F)c4ccc5ncccc5c4)n3n2)cn1 [Example 61, 6-{Difluoro-[6-(1-methyl-1H-pyrazol-4-yl)-[1,2,4]triazolo[4,3-b]pyridazin-3-yl]-methyl}-quinoline]
decrease of mean tumor volume ([1]; 25 mg/kg p.o., q.d. on day 1 and b.i.d. to day 12, Day 12, p<0.01): 94% | decrease of mean tumor volume ([1]; 50 mg/kg p.o., b.i.d. for 7 days, 24-hr pause, then q.d. to day 12, Day 12, p<0.01): 96% | decrease of mean tumor volume ([1]; 75 mg/kg p.o., b.i.d. for 7 days, 24-hr pause, then q.d. to day 12, Day 12, p<0.01): 97% | tumor regression ([1]; 25, 50 and 75 mg/kg p.o., 12 days): Tumor regression was also observed with all three doses | tumor growth inhibition of U87MG tumors ([1]; 25, 50 and 75 mg/kg p.o., 12 days, p<0.01): statistically significant, tumor growth inhibition | mice with tumors regressed to non-palpable, non-detectable tumors by the end of the study (S114 tumors): three of the five mice | regression of S114 tumors (S114 tumors): regressed in all five mice
